In US10570131B2, “Heterocyclic compounds and their use in preventing or treating bacterial infections” (MUTABILIS, priority 2015, dated 2020):
Structures can show the parent of a compound that is named as a salt.

Columns and labels:
[1] = target: T1, AmpC (PAE) (Pseudomonas aeruginosa, UniProt P24735); test: biochemical; design: species or system P. aeruginosa
T1 construct: made in house; host or cells: E. coli expression vector
Description: Method 1: β-lactamase Inhibitory Activity, Determination of IC50 (Table 1)
Enzyme activity was monitored by spectrophotometric measurement of nitrocefin (NCF—TOKU-E, N005) hydrolysis at 485 nm, at room temperature and in assay buffer A: 100 mM Phosphate pH7, 2% glycerol and 0.1 mg/mL Bovine serum albumin (Sigma, B4287). Enzymes were cloned in E. coli expression vector, expressed and purified in house using classical procedures. To a transparent polystyrene plate (Corning, 3628) were added in each well 5 μL DMSO or inhibitor dilutions in DMSO and 80 μL enzyme in buffer A. Plates were immediately read at 485 nm in a microplate spectrophotometer (BioTek, PowerWave HT) to enable background subtraction. After 30 min of pre-incubation at room temperature, 15 μL of NCF (200 μM final) were finally added in each well. Final enzyme concentrations were 0.1 nM (TEM-1), 0.075 nM (SHV-1), 0.4 nM (CTX-M-15), 1 nM (KPC-2), 0.2 nM (P99 AmpC), 0.2 nM (CMY-37), 0.4 nM (AmpC P. aeruginosa), 0.2 nM (OXA-1), 1.2 nM (OXA-11), 0.4 nM (OXA-15) and 0.3 nM (OXA-48). After 20 min incubation at room temperature, plates were once again read at 485 nm. Enzyme activity was obtained by subtracting the final signal by the background, and was converted to enzyme inhibition using non inhibited wells. IC50 curves were fitted to a classical Langmuir equilibrium model with Hill slope using XLFIT (IDBS).

[2] = system: E. cloacae P99; test: MIC of compounds alone, broth microdilution; format: cell-based; conditions: Enterobacter cloacae; strain P99 (AmpC); read-out: MIC compounds of the invention alone
Description: (§1) Compounds of the present invention were assessed against genotyped bacterial strains alone or in combination with the β-lactam ceftazidime (CAZ). […] Briefly, compounds alone according to the invention were prepared in DMSO and spotted (2 μL each) on sterile polystyrene plates (Corning, 3788). […] Log phase bacterial suspensions were adjusted to a final density of 5×10^5 cfu/mL in cation-adjusted Mueller-Hinton broth (Becton-Dickinson) and added to each well (98 μL). Microplates were incubated for 16-20 h at 35° C. in ambient air. The MIC of the compounds was defined as the lowest concentration of said compounds that prevented bacterial growth as read by visual inspection.

[3] = system: E. coli 190317; test: MIC of compounds alone, broth microdilution; format: cell-based; conditions: Escherichia coli; strain 190317 (TEM-1, SHV-12, CTX-M-15, OXA-1); read-out: MIC compounds of the invention alone
Description: as §1

[4] = system: E. coli RGN238; test: MIC of compounds alone, broth microdilution; format: cell-based; conditions: Escherichia coli, RGN238, read-out: MIC compounds of the invention alone
Description: as §1

[5] = system: P. aeruginosa CIP107051; test: MIC of compounds alone, broth microdilution; format: cell-based; conditions: Pseudomonas aeruginosa; strain CIP107051 (TEM-24); read-out: MIC compounds of the invention alone
Description: as §1

[6] = system: E. coli 131119; test: microbe, parasite or virus in culture; format: cell-based; conditions: Escherichia coli, 131119, read-out: MIC compounds of the invention alone
Description: as §1

[7] = system: K. pneumoniae 6299; test: microbe, parasite or virus in culture; format: cell-based; conditions: Klebsiella pneumoniae, 6299, read-out: MIC compounds of the invention alone
Description: as §1

[8] = system: K. pneumoniae BAA-1898; test: microbe, parasite or virus in culture; format: cell-based; conditions: Klebsiella pneumoniae, BAA1898, read-out: MIC compounds of the invention alone
Description: as §1

[9] = system: P. aeruginosa CIP105250; test: microbe, parasite or virus in culture; format: cell-based; conditions: Pseudomonas aeruginosa, CIP105250, read-out: MIC compounds of the invention alone
Description: as §1

[10] = system: E. cloacae 260508; test: MIC of ceftazidime alone and in combination with compounds (synergy), broth microdilution; format: cell-based; conditions: MIC of ceftazidime with compound fixed at 4 μg/mL; strain 260508 (TEM-1, CTX-M-15)
[11] = system: E. coli UFR61O; test: as above; format: cell-based; conditions: MIC of ceftazidime with compound fixed at 4 μg/mL; strain UFR61O (TEM-1, KPC-2)
[12] = system: K. pneumoniae 160143; test: as above; format: cell-based; conditions: MIC of ceftazidime with compound fixed at 4 μg/mL; strain 160143 (TEM-1, SHV-1, CTX-M-15, KPC-2, OXA-1)
[13] = system: E. cloacae P99; test: as above; format: cell-based; conditions: MIC of ceftazidime with compound fixed at 4 μg/mL; strain P99 (AmpC)
[14] = system: K. oxytoca UFR21; test: as above; format: cell-based; conditions: MIC of ceftazidime with compound fixed at 4 μg/mL; strain UFR21 (TEM-1, CTX-M-15, OXA-48)
[15] = system: K. pneumoniae UFR24; format: cell-based; conditions: MIC of ceftazidime with compound fixed at 4 μg/mL; strain UFR24 (TEM-1, SHV-2, SHV-11, OXA-1, OXA-48, OXA-47)
[16] = system: K. pneumoniae 200047; test: MIC of ceftazidime alone and in combination with compounds (synergy), broth microdilution; format: cell-based; conditions: MIC of ceftazidime with compound fixed at 4 μg/mL; strain 200047 (TEM-1, SHV-32, CTX-M-15, OXA-1)
[17] = system: E. coli 190317; test: as above; format: cell-based; conditions: MIC of ceftazidime with compound fixed at 4 μg/mL; strain 190317 (TEM-1, SHV-12, CTX-M-15, OXA-1)
[18] = system: P. aeruginosa UFR35; test: as above; format: cell-based; conditions: MIC of ceftazidime with compound fixed at 4 μg/mL; strain UFR35 (OXA-23)
Method in brief: (§2)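 MIC was read by eye as the lowest compound concentration that prevented bacterial growth. Log-phase cells at 5×10^5 cfu/mL in cation-adjusted Mueller-Hinton broth were exposed to compound, alone or combined with ceftazidime, for 16-20 h at 35° C.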

[19] = system: P. aeruginosa UFR48; test: as above; format: cell-based; conditions: MIC of ceftazidime with compound fixed at 4 μg/mL; strain UFR48 (VIM-2)
Method in brief: as §2

[20] = system: P. aeruginosa UFR90; test: as above; format: cell-based; conditions: MIC of ceftazidime with compound fixed at 4 μg/mL; strain UFR90 (derepressed AmpC, OprD−)
Method in brief: as §2

[21] = system: P. aeruginosa UFR92; test: as above; format: cell-based; conditions: MIC of ceftazidime with compound fixed at 4 μg/mL; strain UFR92 (derepressed AmpC, OprD−)
Method in brief: as §2

T1 sequence (P24735 27-397): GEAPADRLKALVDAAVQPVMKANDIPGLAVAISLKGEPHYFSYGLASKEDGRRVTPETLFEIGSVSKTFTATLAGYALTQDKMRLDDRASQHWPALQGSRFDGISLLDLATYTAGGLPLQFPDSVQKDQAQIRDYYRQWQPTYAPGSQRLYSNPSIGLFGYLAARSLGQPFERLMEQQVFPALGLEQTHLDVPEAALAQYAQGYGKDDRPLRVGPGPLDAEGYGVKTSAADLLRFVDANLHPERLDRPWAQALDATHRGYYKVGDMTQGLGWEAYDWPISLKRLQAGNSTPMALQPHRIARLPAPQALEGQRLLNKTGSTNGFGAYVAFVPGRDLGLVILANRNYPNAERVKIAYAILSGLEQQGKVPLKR

| Structure (SMILES) | IC50 [1] [µM] | MIC [2] [µg/mL] | MIC [3] [µg/mL] | MIC [4] [µg/mL] | MIC [5] [µg/mL] | MIC [6] [µg/mL] | MIC [7] [µg/mL] | MIC [8] [µg/mL] | MIC [9] [µg/mL] | MIC, combination of CAZ and compounds of the invention at 4 μg/mL [10] [µg/mL] | MIC, combination of CAZ and compounds of the invention at 4 μg/mL [11] [µg/mL] | MIC, combination of CAZ and compounds of the invention at 4 μg/mL [12] [µg/mL] | MIC, combination of CAZ and compounds of the invention at 4 μg/mL [13] [µg/mL] | MIC, combination of CAZ and compounds of the invention at 4 μg/mL [14] [µg/mL] | MIC, combination of CAZ and compounds of the invention at 4 μg/mL [15] [µg/mL] | MIC, combination of CAZ and compounds of the invention at 4 μg/mL [16] [µg/mL] | MIC, combination of CAZ and compounds of the invention at 4 μg/mL [17] [µg/mL] | MIC, combination of CAZ and compounds of the invention at 4 μg/mL [18] [µg/mL] | MIC, combination of CAZ and compounds of the invention at 4 μg/mL [19] [µg/mL] | MIC, combination of CAZ and compounds of the invention at 4 μg/mL [20] [µg/mL] | further results |
| --- | --- | --- | --- | --- | --- | --- | --- | --- | --- | --- | --- | --- | --- | --- | --- | --- | --- | --- | --- | --- | --- |
| CNC(=O)CON=C1C[C@@H](C(N)=O)N2C[C@@H]1N(OS(=O)(=O)[O-])C2=O.[Na+] (mixture of isomers) [Example 2, sodium [(2S,5S)-2-carbamoyl-4-[2-(methylamino)-2-oxo-ethoxy]imino-7-oxo-1,6-diazabicyclo[3.2.1]octan-6-yl] sulfate] | 0.11 | > 32 | 4 | > 32 | > 32 | 8 | > 32 | > 32 | > 32 | 1 | 0.5 | 8 | 4 | 2 | 2 | 0.5 | ≤0.125 | – | – | – | – |
| NC[C@@H]1CC(=NOCC(N)=O)[C@@H]2CN1C(=O)N2OS(=O)(=O)O (mixture of isomers) [Example 5, sodium and 2,2,2-trifluroacetate [(2S,5S)-4-(2-amino-2-oxo-ethoxy)imino-2-(azaniumylmethyl)-7-oxo-1,6-diazabicyclo[3.2.1]octan-6-yl] sulfate] | 12 | 0.063 | 0.25 | > 32 | 4 | > 32 | > 32 | > 32 | 32 | <0.25 | <0.25 | 0.5 | <0.25 | ≤0.25 | 1 | ≤0.25 | <0.25 | <0.25 | <0.25 | <0.25 | MIC, combination of CAZ and compounds of the invention at 4 μg/mL [21]: <0.25 µg/mL |
| NC[C@@H]1CC(=O)[C@@H]2CN1C(=O)N2OS(=O)(=O)O [Example 6, 2,2,2-trifluroacetate and sodium [(2S,5S)-2-(azaniumylmethyl)-4,7-dioxo-1,6-diazabicyclo[3.2.1]octan-6-yl] sulfate] | 38 | 1 | 1 | > 32 | 8 | 2 | > 32 | > 32 | 16 | ≤0.25 | 1 | 2 | <0.25 | ≤0.25 | 4 | 1 | <0.25 | <0.25 | ≤0.25 | <0.25 | MIC, combination of CAZ and compounds of the invention at 4 μg/mL [21]: ≤0.25 µg/mL |
